Measurements as given in patent US9850247B2 (Almac Discovery Limited, priority 2013, dated 2017).
pIC50: −log10 of the molar value.

Experiments:
Wee-1 kinase = molecular target: T1, Wee-1 kinase (Homo sapiens, UniProt P30291); experiment: Measurement of Wee-1 kinase activity (ADP-Glo luminescent kit); assay type: biochemical
T1 construct: purchased Invitrogen PV3817
Procedure, shortened: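 ADP-Glo luminescence reads ADP made over 1 h at RT, after an aliquot of 30 μM ATP and 2.0 μg/mL poly(Lys,Tyr 4:1) substrate. Before that, the kinase sat 30 min with inhibitor in Tris-HCl/MgCl2 buffer with BSA and DTT. IC50 came from regression of percent inhibition.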

[1] = test system: phospho-cdc2 (Tyr15) in HT-29 cells; experiment: Effect on phosphorylation of cdc2 at Tyr15, PathScan ELISA (Method 2); assay type: cell-based; conditions: Homo sapiens, 8 h, eight hours incubation, read-out: HT29 pCDC2 method 2
Protocol: Method 2: Determining the Effect of Compounds on the phosphorylation of cdc2 at Tyr15
The colorectal cancer cell lines HT-29 and HCT-116 were purchased from the ATCC and routinely maintained in McCoy's Medium (Invitrogen) supplemented with 10% Foetal Calf Serum.
The cells were trypsinised from their growing vessel and counted, 100 μL of cell suspension containing 6000 cells was pipetted into black 96 well Co-star plates and incubated overnight to allow adherence to the surface at a temperature of 37° C. and an atmosphere of 5% CO2. Test compounds were formulated in DMSO and diluted in foetal calf serum supplemented medium. Incubating medium was removed by aspiration and diluted drug supplemented medium added to each well.
The plate was returned to the incubator for an additional eight hours at 37° C. and an atmosphere of 5% CO2. Post incubation, the drug supplemented medium was aspirated from each well and the cells were washed once in ice-cold phosphate buffered saline (PBS). 100 μL of cell lysis buffer (Cell Signalling Technologies #9803) containing 20 mM Tris, 150 mM NaCl, 1 mM EDTA, 1 mM EGTA, 1% Triton-X100, 2.5 mM sodium pyrophosphate, 1 mM glycerophosphate, 1 mM Na3VO4 and 1 μg/mL leupeptin was added to each well of the 96 well plate and incubated at 4° C. for 30 min. The samples on the plate were snap frozen at −80° C. until required. Immediately before the continuation of the assay, the sample plate was thawed and centrifuged at 4° C. for 10 min and the supernatant transferred to secondary tubes or 96 well plate.
Cell supernatant was mixed in a ratio of 1:1 with sample dilutent buffer and vortexed for one minute. 100 μL of diluted sample was pipetted into pre-coated plates containing a rabbit polyclonal antibody for phospho-cdc2 (Tyr15) (Cell Signalling Technologies PathScan kit #7176). The plate was sealed and incubated overnight at 4° C.
The plate seal was removed and the well contents aspirated, followed by 3×5 min washes with 200 μL of diluted wash buffer. Between each wash the plate was tapped firmly onto blotting paper to ensure the removal of all kit solution. 100 μL of kit detection antibody was added to each well and the plate re-sealed and incubated at 37° C. for 1 h. Post incubation the plate was washed and processed in a similar manner to that previously described.
100 μL of horseradish peroxidise-linked secondary antibody was added to each test well, the plate sealed and incubated for thirty minutes at 37° C. Post incubation, the plate was washed as previously stated, followed by the addition of 100 μL of 3,3′,5,5′ tetramethylbenzidine (TMB reagent). The plate was sealed and incubated at RT for 30 min.
100 μL of stop solution was added to each well and the underside of the plate wiped with a lint-free tissue, prior to spectrophotometric determination. Absorbance from each well was read at 450 nm within 30 min of the addition of the stop solution.
The percentage of phospho-cdc2 was calculated compared to DMSO control and plotted versus the concentration of inhibitor using GraphPad Prism. Data was fitted using non-linear regression analysis and IC50 values generated.

T1 sequence (P30291 whole entry): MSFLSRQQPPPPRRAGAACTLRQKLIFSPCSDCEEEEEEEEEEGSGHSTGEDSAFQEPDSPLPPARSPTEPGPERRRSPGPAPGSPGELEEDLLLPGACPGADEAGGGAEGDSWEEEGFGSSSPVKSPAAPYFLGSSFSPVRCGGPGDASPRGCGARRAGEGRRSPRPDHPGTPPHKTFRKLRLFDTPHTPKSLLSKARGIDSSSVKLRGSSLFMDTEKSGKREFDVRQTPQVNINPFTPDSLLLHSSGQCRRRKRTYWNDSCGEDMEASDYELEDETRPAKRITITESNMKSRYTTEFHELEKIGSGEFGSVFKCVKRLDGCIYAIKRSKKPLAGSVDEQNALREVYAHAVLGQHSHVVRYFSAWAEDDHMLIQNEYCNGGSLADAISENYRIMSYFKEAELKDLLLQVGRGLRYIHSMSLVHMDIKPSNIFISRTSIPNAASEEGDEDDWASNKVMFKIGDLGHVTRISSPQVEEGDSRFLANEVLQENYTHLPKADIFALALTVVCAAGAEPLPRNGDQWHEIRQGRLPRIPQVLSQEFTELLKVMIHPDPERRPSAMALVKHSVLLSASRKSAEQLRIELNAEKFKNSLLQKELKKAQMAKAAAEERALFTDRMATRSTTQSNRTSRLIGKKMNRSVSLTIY

Row | SMILES | pIC50 (Wee-1 kinase) | pIC50 [1]
1 | CN1CN(c2c(Cl)cccc2Cl)C(=O)c2cnc(Nc3ccc(N4CC5CCC(C4)N5C)c(CO)c3)nc21 [Example 86, 3-(2,6-dichlorophenyl)-7-((3-(hydroxymethyl)-4-(8-methyl-3,8-diazabicyclo[3.2.1]octan-3-yl)phenyl)amino)-1-methyl-2,3-dihydropyrimido[4,5-d]pyrimidin-4(1H)-one] | ≥ 8.00 | ≥ 7.00
2 | CC(C)N1CCN(c2ccc(Nc3ncc4c(n3)N(C)CN(c3c(Cl)cccc3Cl)C4=O)cc2CO)CC1 [Example 21, 3-(2,6-Dichlorophenyl)-7-((3-(hydroxymethyl)-4-(4-isopropylpiperazin-1-yl)phenyl)amino)-1-methyl-2,3-dihydropyrimido[4,5-d]pyrimidin-4(1H)-one] | 7.00 to 8.00 | ≥ 7.00
3 | COC[C@H]1CN(c2ccc(Nc3ncc4c(n3)N(C)CN(c3c(Cl)cccc3Cl)C4=O)cc2)CCN1 [Example 60, (R)-3-(2,6-dichlorophenyl)-7-((4-(3-(methoxymethyl)piperazin-1-yl)phenyl)amino)-1-methyl-2,3-dihydropyrimido[4,5-d]pyrimidin-4(1H)-one] | 7.00 to 8.00 | ≥ 7.00
4 | CN1CN(c2c(F)cccc2Cl)C(=O)c2cnc(Nc3ccc(N4CCNCC4)cc3)nc21 [Example 25, 3-(2-Chloro-6-fluorophenyl)-1-methyl-7-((4-(piperazin-1-yl)phenyl)amino)-2,3-dihydropyrimido[4,5-d]pyrimidin-4(1H)-one] | 7.00 to 8.00 | ≥ 7.00
5 | COCc1cc(Nc2ncc3c(n2)N(C)CN(c2c(Cl)cccc2Cl)C3=O)ccc1N1CCNCC1 [Example 31, 3-(2,6-dichlorophenyl)-7-((3-(methoxymethyl)-4-(piperazin-1-yl)phenyl)amino)-1-methyl-2,3-dihydropyrimido[4,5-d]pyrimidin-4(1H)-one] | 7.00 to 8.00 | 6.00 to 7.00
6 | CN1CN(c2c(Cl)cccc2Cl)C(=O)c2cnc(Nc3ccc(N4CC5CCC(C4)N5)cc3)nc21 [Example 74, 7-((4-(3,8-diazabicyclo[3.2.1]octan-3-yl)phenyl)amino)-3-(2,6-dichlorophenyl)-1-methyl-2,3-dihydropyrimido [4,5-d]pyrimidin-4(1H)-one] | 7.00 to 8.00 | 6.00 to 7.00
7 | CN1CN(c2c(Cl)cccc2Cl)C(=O)c2cnc(Nc3ccc(N4CCNCC4)c(C#N)c3)nc21 [Example 11, 3-(2,6-Dichlorophenyl)-7-((3-cyano-4-(piperazin-1-yl)phenyl)amino)-1-methyl-2,3-dihydropyrimido[4,5-d]pyrimidin-4(1H)-one] | ≥ 8.00 | 6.00 to 7.00
8 | C[C@@H]1CN(c2ccc(Nc3ncc4c(n3)N(C)CN(c3c(F)cccc3Cl)C4=O)cc2)CCN1 [Example 53, (R)-3-(2-chloro-6-fluorophenyl)-1-methyl-7-((4-(3-methylpiperazin-1-yl)phenyl)amino)-2,3-dihydropyrimido[4,5-d]pyrimidin-4(1H)-one] | 7.00 to 8.00 | ≥ 7.00
9 | C[C@H]1CN(c2ccc(Nc3ncc4c(n3)N(C)CN(c3c(Cl)cccc3Cl)C4=O)cc2)CCN1 [Example 17, (S)-3-(2,6-Dichlorophenyl)-1-methyl-7-((4-(3-methylpiperazin-1-yl)phenyl)amino)-2,3-dihydropyrimido[4,5-d]pyrimidin-4(1H)-one] | 7.00 to 8.00 | ≥ 7.00
10 | CN1CCc2ccc(Nc3ncc4c(n3)N(C)CN(c3c(Cl)cccc3Cl)C4=O)cc2C1 [Example 22, 3-(2,6-Dichlorophenyl)-1-methyl-7-((2-methyl-1,2,3,4-tetrahydroisoquinolin-7-yl)amino)-2,3-dihydropyrimido[4,5-d]pyrimidin-4(1H)-one] | ≥ 8.00 | ≥ 7.00
11 | C[C@@H]1CN[C@@H](C)CN1c1ccc(Nc2ncc3c(n2)N(C)CN(c2c(Cl)cccc2Cl)C3=O)cc1 [Example 40, 3-(2,6-dichlorophenyl)-7-((4-((2R,5S)-2,5-dimethylpiperazin-1-yl)phenyl)amino)-1-methyl-2,3-dihydropyrimido[4,5-d]pyrimidin-4(1H)-one] | ≥ 8.00 | ≥ 7.00
12 | COCc1cc(Nc2ncc3c(n2)N(C)CN(c2c(Cl)cccc2Cl)C3=O)ccc1N1CCN[C@H](C)C1 [Example 59, (R)-3-(2,6-dichlorophenyl)-7-((3-(methoxymethyl)-4-(3-methylpiperazin-1-yl)phenyl)amino)-1-methyl-2,3-dihydropyrimido[4,5-d]pyrimidin-4(1H)-one] | 7.00 to 8.00 | 6.00 to 7.00

Other lines, results leading:

Row | pIC50 (Wee-1 kinase) | pIC50 [1] | SMILES
13 | ≥ 8.00 | 6.00 to 7.00 | C[C@@H]1CN(c2ccc(Nc3ncc4c(n3)N(C)CN(c3c(Cl)cccc3Cl)C4=O)cc2F)CCN1 [Example 43, (R)-3-(2,6-dichlorophenyl)-7-((3-fluoro-4-(3-methylpiperazin-1-yl)phenyl)amino)-1-methyl-2,3-dihydropyrimido[4,5-d]pyrimidin-4(1H)-one]
14 | ≥ 8.00 | 6.00 to 7.00 | CN1CN(c2c(Cl)cccc2Cl)C(=O)c2cnc(Nc3ccc(N4CCN(C(=O)CN)CC4)cc3)nc21 [Example 13, 7-((4-(4-(2-Aminoacetyl)piperazin-1-yl)phenyl)amino)-3-(2,6-dichlorophenyl)-1-methyl-2,3-dihydropyrimido[4,5-d]pyrimidin-4(1H)-one]
15 | ≥ 8.00 | ≥ 7.00 | [2H]C1([2H])N(C)c2nc(Nc3ccc(N4CCNCC4)cc3)ncc2C(=O)N1c1c(Cl)cccc1Cl [Example 15, 3-(2,6-Dichlorophenyl)-2,2-dideutero-1-methyl-7-((4-(piperazin-1-yl)phenyl)amino)-2,3-dihydropyrimido[4,5-d]pyrimidin-4(1H)-one]
16 | ≥ 8.00 | 6.00 to 7.00 | CN1CN(c2c(Cl)cccc2Cl)C(=O)c2cnc(Nc3ccc(N4CCN[C@@H](CO)C4)cc3)nc21 [Example 19, (R)-3-(2,6-Dichlorophenyl)-7-((4-(3-(hydroxymethyl)piperazin-1-yl)phenyl)amino)-1-methyl-2,3-dihydropyrimido[4,5-d]pyrimidin-4(1H)-one]
17 | ≥ 8.00 | ≥ 7.00 | C[C@@H]1CN(c2ccc(Nc3ncc4c(n3)N(C)CN(c3c(Cl)cccc3Cl)C4=O)cc2)[C@@H](C)CN1 [Example 80, 3-(2,6-dichlorophenyl)-7-((4-((2S,5R)-2,5-dimethylpiperazin-1-yl)phenyl)amino)-1-methyl-2,3-dihydropyrimido[4,5-d]pyrimidin-4(1H)-one]
18 | ≥ 8.00 | ≥ 7.00 | CN1CN(c2c(Cl)cccc2Cl)C(=O)c2cnc(Nc3ccc4c(c3)CNCC4)nc21 [Example 14, 3-(2,6-Dichlorophenyl)-1-methyl-7-((1,2,3,4-tetrahydroisoquinolin-7-yl)amino)-2,3-dihydropyrimido[4,5-d]pyrimidin-4(1H)-one]
19 | ≥ 8.00 | 6.00 to 7.00 | Cc1cc(Nc2ncc3c(n2)N(C)CN(c2c(Cl)cccc2Cl)C3=O)ccc1C1CCNCC1 [Example 18, 3-(2,6-Dichlorophenyl)-1-methyl-7-((3-methyl-4-(piperidin-4-yl)phenyl)amino)-2,3-dihydropyrimido[4,5-d]pyrimidin-4(1H)-one]
20 | ≥ 8.00 | 6.00 to 7.00 | CNCCOc1ccc(Nc2ncc3c(n2)N(C)CN(c2c(Cl)cccc2Cl)C3=O)cc1 [Example 2, 3-(2,6-Dichlorophenyl)-1-methyl-7-((4-(2-(methylamino)ethoxy)phenyl)amino)-2,3-dihydropyrimido[4,5-d]pyrimidin-4(1H)-one]
21 | ≥ 8.00 | 6.00 to 7.00 | COc1cc(Nc2ncc3c(n2)N(C)CN(c2c(Cl)cccc2Cl)C3=O)ccc1N1CCNCC1 [Example 3, 3-(2,6-Dichlorophenyl)-7-((3-methoxy-4-(piperazin-1-yl)phenyl)amino)-1-methyl-2,3-dihydropyrimido[4,5-d]pyrimidin-4(1H)-one]
